Data taken from patent publication US20220281825A1 (priority 2016, published 2022).

Experiments:
LASV-p = test: organism not typed; type: cell-based, Lassa (LASV); conditions: Vero, 24 h, read-out: LASV-p EC50 (nM)
MACV-p = test: organism not typed; type: cell-based, Machupo (MACV); conditions: Vero, 24 h, read-out: MACV-p EC50 (nM)
JUNV-p = test: organism not typed; type: cell-based, Junin (JUNV); conditions: Vero, 24 h, read-out: JUNV-p EC50 (nM)
TCRV-p = test: organism not typed; type: cell-based; conditions: Vero, 24 h, read-out: TCRV-p EC50 (nM)
GTOV-p = test: organism not typed; type: cell-based, Guanarito (GTOV); conditions: Vero, 24 h, read-out: GTOV-p EC50 (nM)
VSV-p = test: microbe, parasite or virus in culture; type: cell-based; conditions: Vesicular stomatitis virus, Vero, 24 h, read-out: VSV-p EC50 (nM)
in vitro = conditions: African green monkey
hERG channel = hERG channel (Homo sapiens, UniProt Q12809); conditions: pH 7.4
Sequence of hERG channel (Q12809 whole entry): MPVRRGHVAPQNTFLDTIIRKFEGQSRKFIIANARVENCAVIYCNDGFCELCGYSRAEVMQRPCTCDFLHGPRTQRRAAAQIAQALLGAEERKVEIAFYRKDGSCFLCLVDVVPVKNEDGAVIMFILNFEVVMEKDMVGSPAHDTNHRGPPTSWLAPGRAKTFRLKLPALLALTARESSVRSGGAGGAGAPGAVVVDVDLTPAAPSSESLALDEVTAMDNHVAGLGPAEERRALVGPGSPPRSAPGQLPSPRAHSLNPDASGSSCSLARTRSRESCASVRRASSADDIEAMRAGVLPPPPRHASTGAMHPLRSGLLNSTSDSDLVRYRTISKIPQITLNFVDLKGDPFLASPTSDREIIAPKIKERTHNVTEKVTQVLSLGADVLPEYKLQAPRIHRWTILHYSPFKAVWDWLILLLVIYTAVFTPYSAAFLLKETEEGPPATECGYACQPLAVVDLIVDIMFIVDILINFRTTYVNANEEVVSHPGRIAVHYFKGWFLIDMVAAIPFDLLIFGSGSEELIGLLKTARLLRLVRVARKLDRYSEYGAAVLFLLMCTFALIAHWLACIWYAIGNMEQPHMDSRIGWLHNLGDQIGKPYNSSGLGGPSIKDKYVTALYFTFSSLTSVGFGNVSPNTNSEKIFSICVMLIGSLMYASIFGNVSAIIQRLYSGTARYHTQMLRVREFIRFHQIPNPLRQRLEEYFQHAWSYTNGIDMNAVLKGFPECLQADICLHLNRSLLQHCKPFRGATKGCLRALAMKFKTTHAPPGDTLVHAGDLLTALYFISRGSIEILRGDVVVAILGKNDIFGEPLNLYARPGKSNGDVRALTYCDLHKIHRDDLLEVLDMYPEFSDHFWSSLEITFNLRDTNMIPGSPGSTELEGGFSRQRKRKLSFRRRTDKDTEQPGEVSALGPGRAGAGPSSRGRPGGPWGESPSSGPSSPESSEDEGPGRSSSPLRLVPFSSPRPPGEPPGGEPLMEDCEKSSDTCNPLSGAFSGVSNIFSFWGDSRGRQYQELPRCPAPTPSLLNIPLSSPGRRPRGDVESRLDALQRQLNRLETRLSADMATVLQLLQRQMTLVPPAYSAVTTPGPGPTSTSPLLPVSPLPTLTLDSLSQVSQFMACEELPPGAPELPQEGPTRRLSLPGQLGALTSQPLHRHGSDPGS

[1] = 1 h, pH 7.4
[2] = guinea pig, 1 h, pH 7.4
[3] = 1 h, pH 7.4; remark: listed apart in the source
LASV = test: organism not typed; type: cell-based, Lassa (LASV)
JUNV = test: organism not typed; type: cell-based, Junin (JUNV)
[4] = system: native replicating Tacaribe (TCRV) virus; test: microbe, parasite or virus in culture; type: cell-based
LCMV = test: microbe, parasite or virus in culture; type: cell-based, lymphocytic choriomeningitis virus (LCMV)
[5] = 1 h, pH 7.4; remark: listed apart in the source

SMILES | EC50 (LASV-p) | EC50 (MACV-p) | EC50 (JUNV-p) | EC50 (TCRV-p) | EC50 (GTOV-p) | EC50 (VSV-p) | CC50 (in vitro) | further results
CC(C)Oc1ccc(-c2ccc3ncc(-c4ccc(OC(F)F)cc4)n3c2)cc1 [Example C40, 3-[4-(difluoromethoxy)phenyl]-6-[4-(propan-2-yloxy)phenyl]imidazo[1,2a]pyridine] | 3.83 nM | 5.85 nM | 0.97 nM | 22.6 nM | 1.35 nM | 6170 nM | 4110 nM | –
CC(C)Oc1ccc(-n2nnc3ccc(-c4ccc5[nH]ccc5c4)cc32)cc1 [Example B13, 6-(1H-indol-5-yl)-1-[4-(propan-2-yloxy)phenyl]-1H-1,2,3-benzotriazole] | 1.53 nM | 5.58 nM | 1.8 nM | 20.4 nM | 1.24 nM | 5360 nM | 6620 nM | –
COc1ccc(-n2cnc3ccc(-c4ccc(N5CCOCC5)cc4)cc32)cc1 [Example A16, 1-(4-methoxyphenyl)-6-[4-(morpholin-4-yl)phenyl]-1H-1,3-benzodiazole] | 17.2 nM | > 25 nM | 15.3 nM | > 25 nM | – | > 1000 nM | > 100000 nM | –
CC(C)Oc1ccc(-c2cnc3ccc(-c4ccc(OC(C)C)c(F)c4)cn23)cc1 [Example C24, 6-[3-fluoro-4-(propan-2-yloxy)phenyl]-3-[4-(propan-2-yloxy)phenyl]imidazo[1,2-a]pyridine] | 4.58 nM | 0.875 nM | 0.416 nM | 3.91 nM | 0.15 nM | 9810 nM | 4180 nM | –
CC(C)Oc1ccc(-c2cnc3ccc(-c4ccc5cc[nH]c5c4)cn23)cc1 [Example C11, 6-{3-[4-(propan-2-yloxy)phenyl]imidazo[1,2-a]pyridin-6-yl}-1H-indole] | 2.83 nM | 10 nM | 3.21 nM | 18.4 nM | 0.86 nM | 3090 nM | 25200 nM | –
OC1(c2ccc(-c3ccc4ncc(-c5ccc(C6(O)CCC6)cc5)n4c3)cc2)CCC1 [Example C47, 1-(4-{3-[4-(1-hydroxycyclobutyl)phenyl]imidazo[1,2-a]pyridin-6-yl}phenyl)cyclobutan-1-ol] | 1.8 nM | 0.5 nM | 0.55 nM | 1.17 nM | 0.44 nM | 4340 nM | 7860 nM | –
CC(C)Oc1ccc(-c2ccc3ncc(-c4ccc(OCC5CC5)cc4)n3c2)cc1 [Example C33, 3-[4-(cyclopropylmethoxy)phenyl]-6-[4-(propan-2-yloxy)phenyl]imidazo[1,2a]pyridine] | 1.3 nM | 5.31 nM | 2.3 nM | 6.57 nM | 0.91 nM | 4770 nM | 4770 nM | –
CC(C)Oc1ccc(-c2ccc3nnn(-c4ccc(OC(C)C)cc4)c3c2)cc1 [Example B12, 1,6-bis[4-(propan-2-yloxy)phenyl]-1H-1,2,3-benzotriazole] | – | – | – | – | – | – | – | hERG % Inhibition (hERG channel): 17%
CC(C)Oc1ccc(-n2cnc3ccc(-c4ccc(N(C)C)cc4)cc32)cc1 [Example A18, N,N-dimethyl-4-{1-[4-(propan-2-yloxy)phenyl]-1H-1,3-benzodiazol-6-yl}aniline] | 1.08 nM | 2.27 nM | 1.55 nM | 12.5 nM | 0.07 nM | > 1000 nM | 14000 nM | –
Cc1cc2nnn(-c3ccc(OC(C)C)cc3)c2cc1-c1ccc(OC(C)C)cc1 [Example B15, 5-methyl-1,6-bis[4-(propan-2-yloxy)phenyl]-1H-1,2,3-benzotriazole] | 0.95 nM | 0.25 nM | 0.02 nM | 0.37 nM | 0.18 nM | > 10000 nM | > 100000 nM | hERG % Inhibition (hERG channel): <10%
COc1ccc(-n2cnc3ccc(-c4ccc(C(C)(C)O)cc4)cc32)cc1 [Example A8, 2-{4-[1-(4-methoxyphenyl)-1H-1,3-benzodiazol-6-yl]phenyl}propan-2-ol] | 6.4 nM | 22.3 nM | 3.98 nM | 21.7 nM | – | > 1000 nM | 9540 nM | –
COc1cc2ncn(-c3ccc(OC(C)C)cc3)c2cc1-c1ccc(OC(C)C)cc1 [Example A31, 5-methoxy-1,6-bis[4-(propan-2-yloxy)phenyl]-1H-1,3-benzodiazole] | 2.6 nM | 0.9 nM | 0.18 nM | 0.7 nM | – | – | 3790 nM | Percent parent compound remaining at 60 minutes in liver microsomes, Human [1]: 93%; Percent parent compound remaining at 60 minutes in liver microsomes, Guinea [2]: 100%; Percent parent compound remaining at 60 minutes in liver microsomes, Monkey [3]: 40%; hERG % Inhibition (hERG channel): <10%
CC(C)Oc1ccc(-c2ccc3ncc(-c4ccc(C5CC5)cc4)n3c2)cc1 [Example C30, 3-(4-cyclopropylphenyl)-6-[4-(propan-2-yloxy)phenyl]imidazo[1,2-a]pyridine] | 1.02 nM | 1.08 nM | 0.82 nM | 3.83 nM | 0.05 nM | 6960 nM | 3980 nM | –
Cc1cc2ncn(-c3ccc(OC(C)C)cc3)c2cc1-c1ccc(OC(C)C)cc1 [Example A30, 5-methyl-1,6-bis[4-(propan-2-yloxy)phenyl]-1H-1,3-benzodiazole] | 0.53 nM | 0.21 nM | 0.03 nM | 0.07 nM | 0.21 nM | 5310 nM | 3670 nM | hERG % Inhibition (hERG channel): <10%
CC(C)Oc1ccc(-c2ccc3ncn(-c4ccc(OC(C)C)cc4)c3n2)cc1 [Example B2, 3,5-bis[4-(propan-2-yloxy)phenyl]-3H-imidazo[4,5-b]pyridine] | – | – | – | – | – | – | – | hERG % Inhibition (hERG channel): <10%
c1cc(-c2ccc3ncc(-c4ccc(OC5CC5)cc4)n3c2)ccc1OC1CC1 [Example C46, 3,6-bis(4-cyclopropoxyphenyl)imidazo[1,2-a]pyridine] | 7.23 nM | 8.47 nM | 4.42 nM | 22.5 nM | 1.26 nM | 4550 nM | 4610 nM | –
COc1ccc(-n2cnc3ccc(-c4ccc5[nH]ccc5c4)cc32)cc1 [Example A12, 6-(1H-indol-5-yl)-1-(4-methoxyphenyl)-1H-1,3-benzodiazole] | 0.81 nM | > 25 nM | 19.3 nM | 21.4 nM | – | 800 nM | 200 nM | –
COc1ccc(-n2cnc3ccc(-c4ccc(N(C)C)cc4)cc32)cc1 [Example A7, 4-[1-(4-methoxyphenyl)-1H-1,3-benzodiazol-6-yl]-N,N-dimethylaniline] | 8.9 nM | 17 nM | 1.8 nM | > 25 nM | – | 980 nM | 3960 nM | –
CC(C)Oc1ccc(-n2cnc3ccc(-c4ccc5[nH]ccc5c4)cc32)cc1 [Example A24, 6-(1H-indol-5-yl)-1-[4-(propan-2-yloxy)phenyl]-1H-1,3-benzodiazole] | 0.91 nM | 3.7 nM | 1.7 nM | 15.9 nM | 0.3 nM | – | 71300 nM | LASV SI (LASV): 527; EC50 (LASV; 120 h, read-out: LASV EC50 uM): 0.06 µM; JUNV SI (JUNV): 53; EC50 (JUNV; 120 h, read-out: JUNV EC50 uM): 0.56 µM; TCRV SI50 [4]: 7100; EC50 ([4]; Mammarenavirus tacaribeense, Vero, 120 h, read-out: TCRV EC50 uM): 0.01 µM; LCMV SI90 (LCMV): 18; EC90 (LCMV; Mammarenavirus choriomeningitidis, read-out: LCMV EC90 uM): 0.56 µM; Percent parent compound remaining at 60 minutes in liver microsomes, Human [1]: 63%; Percent parent compound remaining at 60 minutes in liver microsomes, Guinea [2]: 0%; Percent parent compound remaining at 60 minutes in liver microsomes, Rat [5]: 32%
CC(C)Oc1ccc(-n2cnc3ccc(-c4ccc(C(C)(C)O)cc4)nc32)cc1 [Example B1, 2-(4-{3-[4-(propan-2-yloxy)phenyl]-3H-imidazo[4,5-b]pyridin-5-yl}phenyl)propan-2-ol] | 1.61 nM | 7.09 nM | 4.95 nM | 28 nM | 0.88 nM | > 1000 nM | 12200 nM | –
CC(C)Oc1ccc(-c2cnc3ccc(-c4ccc(C5(O)CCC5)cc4)cn23)cc1 [Example C9, 1-(4-{3-[4-(propan-2-yloxy)phenyl]imidazo[1,2-a]pyridin-6-yl}phenyl)cyclobutan-1-ol] | 1.15 nM | 0.71 nM | 0.45 nM | 1.7 nM | 0.27 nM | 5810 nM | 3970 nM | –
CC(C)Oc1ccc(-c2cnc3ccc(-c4ccc(C5(O)CC5)cc4)cn23)cc1 [Example C27, 1-(4-{3-[4-(propan-2-yloxy)phenyl]imidazo[1,2-a]pyridin-6-yl}phenyl)cyclopropan-1-ol] | 0.66 nM | 0.68 nM | 0.51 nM | 0.58 nM | 0.24 nM | > 10000 nM | 5280 nM | –
